ChEMBL document CHEMBL3227930, “Some 11-substituted tetrahydrocannabinols. Synthesis and comparison with the potent cannabinoid metabolites 11-hydroxytetrahydrocannabinols” (1979)
The source made the active and inactive calls. No cut-off for these calls is given here.

Tests used:
Mus musculus [1] = experiment: Analgesic activity in sc dosed mouse by hot-plate method; assay type: functional
Mus musculus [2] = experiment: Analgesic activity in mouse at 20 mg/kg, sc by hot-plate method; assay type: functional, organism-based; set-up: dose 20 mg/kg
Canis familiaris [3] = experiment: Induction of overt behavior in dog at 0.01 mg/kg, iv; assay type: functional, organism-based; set-up: dose 0.01 mg/kg; settings: Canis lupus familiaris
Canis familiaris [4] = experiment: Induction of overt behavior in dog at 0.05 mg/kg, iv; assay type: functional, organism-based; set-up: dose 0.05 mg/kg; settings: Canis lupus familiaris
Canis familiaris [5] = experiment: Induction of overt behavior in dog at 0.10 mg/kg, iv; assay type: functional, organism-based; set-up: dose 0.1 mg/kg; settings: Canis lupus familiaris
Canis familiaris [6] = experiment: Induction of overt behavior in dog at 0.50 mg/kg, iv; assay type: functional, organism-based; set-up: dose 0.5 mg/kg; settings: Canis lupus familiaris
Canis familiaris [7] = experiment: Induction of overt behavior in dog at 1 mg/kg, iv; assay type: functional, organism-based; set-up: dose 1 mg/kg; settings: Canis lupus familiaris
Canis familiaris [8] = experiment: Induction of overt behavior in dog at 2 mg/kg, iv; assay type: functional, organism-based; set-up: dose 2 mg/kg; settings: Canis lupus familiaris
Canis familiaris [9] = experiment: Induction of overt behavior in dog at 0.20 mg/kg, iv; assay type: functional, organism-based; set-up: dose 0.2 mg/kg; settings: Canis lupus familiaris
Canis familiaris [10] = experiment: Induction of overt behavior in dog at 0.40 mg/kg, iv; assay type: functional, organism-based; set-up: dose 0.4 mg/kg; settings: Canis lupus familiaris
Canis familiaris [11] = experiment: Induction of overt behavior in dog at 0.80 mg/kg, iv; assay type: functional, organism-based; set-up: dose 0.8 mg/kg; settings: Canis lupus familiaris
Canis familiaris [12] = experiment: Induction of overt behavior in dog at 3 mg/kg, iv; assay type: functional, organism-based; set-up: dose 3 mg/kg; settings: Canis lupus familiaris
Mus musculus [13] = experiment: Analgesic activity in mouse at 50 mg/kg, sc by hot-plate method; assay type: functional, organism-based; set-up: dose 50 mg/kg
Canis familiaris [14] = experiment: Induction of overt behavior in dog at 4 mg/kg, iv; assay type: functional, organism-based; set-up: dose 4 mg/kg; settings: Canis lupus familiaris

With CN1CC[C@]23c4c5ccc(O)c4O[C@H]2[C@@H](O)C=C[C@H]3[C@H]1C5.Cl [MORPHINE HYDROCHLORIDE] the ED50 (Mus musculus [1]) was 1.2 mg/kg.
For COc1ccc2c3c1O[C@H]1[C@@H](O)C=C[C@H]4[C@@H](C2)N(C)CC[C@@]341.Cl, the ED50 (Mus musculus [1]) was 7.5 mg/kg.
For CCCCCc1cc(O)c2c(c1)OC(C)(C)[C@@H]1CC/C(=N/O)C[C@@H]21, the Activity (Mus musculus [2]) was “inactive”.
For CCCCCc1cc(O)c2c(c1)OC(C)(C)[C@@H]1CCC(CO)=C[C@@H]21, the Activity (Canis familiaris [3]) was “Active”, the Activity (Canis familiaris [4]) was “Active” and the Activity (Canis familiaris [5]) was “Active”. It also gave an ED50 (Mus musculus [1]) of 1.9 mg/kg.
For CCCCCc1cc(O)c2c(c1)OC(C)(C)[C@@H]1CC=C(CN)C[C@@H]21, the Activity (Canis familiaris [6]) was “inactive”, the Activity (Canis familiaris [7]) was “inactive” and the Activity (Canis familiaris [8]) was “Active”. The Activity (Mus musculus [2]) was “inactive”.
CCCCCc1cc(O)c2c(c1)OC(C)(C)[C@@H]1CC=C(CC)CC21 (mixture of isomers) was tested, and the Activity (Canis familiaris [9]) was “inactive”, the Activity (Canis familiaris [10]) was “inactive” and the Activity (Canis familiaris [11]) was “Active”. For the same compound, the Activity (Canis familiaris [7]) was “Active”, the Activity (Canis familiaris [8]) was “Active” and the Activity (Canis familiaris [12]) was “Active”. The Activity (Mus musculus [13]) was “inactive”.
CCCCCc1cc(O)c2c(c1)OC(C)(C)[C@@H]1CC=C(CNC(C)=O)C[C@@H]21 was tested, and the Activity (Mus musculus [2]) was “inactive”.
For CCCCCc1cc(O)c2c(c1)OC(C)(C)[C@@H]1CC=C(COC)C[C@@H]21, the Activity (Canis familiaris [8]) was “Active”, the Activity (Canis familiaris [14]) was “Active” and the ED50 (Mus musculus [1]) was 8.2 mg/kg.
In the case of CCCCCc1cc(O)c2c(c1)OC(C)(C)[C@@H]1CC=C(C)C[C@@H]21 [DELTA-8-TETRAHYDROCANNABINOL], the Activity (Canis familiaris [5]) is reported as “inactive”, the Activity (Canis familiaris [9]) is reported as “inactive” and the Activity (Canis familiaris [10]) is reported as “Active”. For the same compound, the ED50 (Mus musculus [1]) was 8.8 mg/kg.
